{"source": "paper PMC12775434", "about": "“Ultra-large virtual screening unveils potent agonists of the neuromodulatory orphan receptor GPR139” (Nature Communications, 2025)", "key": {"GPR139": {"biological_target": "T1, GPR139 (Homo sapiens, UniProt Q6DWJ6)", "T1 sequence (Q6DWJ6 1-353)": "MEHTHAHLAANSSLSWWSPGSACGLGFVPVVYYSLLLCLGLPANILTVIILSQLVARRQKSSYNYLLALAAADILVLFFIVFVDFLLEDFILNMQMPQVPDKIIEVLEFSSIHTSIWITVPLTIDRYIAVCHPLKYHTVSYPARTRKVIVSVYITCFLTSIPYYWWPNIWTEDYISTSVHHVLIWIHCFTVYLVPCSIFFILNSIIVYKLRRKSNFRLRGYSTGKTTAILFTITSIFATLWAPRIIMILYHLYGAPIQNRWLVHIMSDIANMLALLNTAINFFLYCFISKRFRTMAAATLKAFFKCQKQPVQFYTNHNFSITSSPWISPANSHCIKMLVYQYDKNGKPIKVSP", "experiment": "Ca2+ mobilization assay, antagonist mode (EC80 800 nM Lundbeck Cmp 1a after 20 min preincubation), GPR139-CHOk1", "assay_type": "cell-based", "summary_of_the_method": "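Antagonist mode: 800 nM (EC80) reference agonist Lundbeck Cmp 1a added following 20 min pre-incubation with 10 µM compound. GPR139-CHOk1 cells, Fluo-4 dye, probenecid-containing HEPES buffer pH 7.4; intracellular Ca2+ measured at 37 °C (ex 485, em 525 nm).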"}, "[1]": {"biological_target": "T2, GPR139 (arrestin-3 recruitment) (Homo sapiens, UniProt Q6DWJ6)", "T2 construct": "expressed in transfected cells; host or cells: HEK293A (transient, Lipofectamine 2000)", "T2 sequence (Q6DWJ6 1-353)": "T1 sequence (Q6DWJ6 1-353)", "experiment": "Arrestin-3 recruitment assay (enhanced bystander BRET), HEK293A", "assay_type": "cell-based", "settings": "for EC50: read-out: pEC50 Arrestin-3 (converted); for Arrestin-3 recruitment: individual replicates", "description": "Primary screening and pharmacological characterization of compounds were performed using a CHO-K1 cell line that stably expresses human GPR139 (GPR139-CHOk1). The GPR139-CHOk1 cell line was kindly provided by H. Lundbeck A/S, Denmark[24]. GPR139-CHOk1 cells were grown in Ham’s F-12 Kaighn’s Modification Medium (ThermoFisher #21127030) supplemented with 10% dialyzed fetal bovine serum (US origin, ThermoFisher #26400044), 100 units/mL Penicillin-Streptomycin (ThermoFisher #15140122), and 1 mg/mL Geneticin (ThermoFisher #11811031). […] M1R-CHOk1 cells were purchased from The Missouri S&T cDNA Resource Center (#CEM100TN00). M1R-CHOk1 cells were grown in Ham’s F12 Medium (ThermoFisher #21765029) supplemented with 10% fetal bovine serum (Brazilian origin, ThermoFisher #10270106), 100 units/mL Penicillin-Streptomycin, and 0.25 mg/mL Geneticin. HEK293A cells transiently transfected with GPR139 were used for additional pharmacological assessment of signaling pathways activated by GPR139. HEK239A cells were generously provided by Dr. Asuka Inoue, Tohoku University, Japan. HEK293A cells were grown in Dulbecco’s Modified Eagle Medium (ThermoFisher #31966047) supplemented with 10% dialyzed fetal bovine serum and 100 units/mL Penicillin-Streptomycin. Cell lines were maintained at 37 °C in humidified incubator equilibrated with 5% CO2.\nThe enhanced bystander BRET arrestin recruitment assay developed by the work of Donthamsetti et al.[58] was used to measure the arrestin-3 recruitment by GPR139. HEK293A cells were reverse transfected 20–24 h prior to the assay. 50,000 cells were plated in each well of white opaque tissue culture treated 96-well plates (PerkinElmer #6005680) previously coated with poly-D-lysine. The transfection solutions were prepared as described, and 10 µL transfection solution was mixed with 100 µL cells in each well. The cells in each well were transfected with 6 ng GPR139, 0.6 ng RLuc8-Arrestin3-Sp1, 6 ng GRK5, and 62.5 ng MEMlinker[doubly palmitoylated fragment of GAP43]-Citrine-SH3 using 200 nL Lipofectamine 2000 Transfection Reagent. Each transfection was normalized to 80 ng total DNA with pcDNA3.1. On the day of the experiment, the cells were washed with HEPES buffer and incubated for 2 h in HEPES buffer prior to measurements. Test compounds were diluted in HEPES buffer from DMSO stocks (final DMSO concentration of maximally 0.3%). Renilla luciferase 8 (RLuc8) substrate Coelenterazine h (Cayman Chemical #16894) was diluted in HEPES buffer to 5 µM (final). Coelenterazine h was added, and the cells were incubated for 5 min followed by stimulation with test compounds. Simultaneous dual emission was measured at 535 nm and 475 nm on LUMIstar Omega Microplate Reader (BMG Labtech) at 37 °C over 30 min. The BRET ratio of 535 nm/475 nm (Citrine/RLuc8), reflecting the translocation of arrestin from the cytosol to the membrane, was used to determine the arrestin recruitment. The BRET response-time course area under the curve of the basal response obtained with buffer condition was subtracted from the absolute response at a given test compound concentration, and the responses were normalized to the one obtained with 10 µM JNJ-63533054.\nPharmacological data and statistical analyses were performed in GraphPad Prism v9–10 (Graphpad Software Inc., San Diego, CA), which are also specifically described in the figure and table legends. The functional assay responses were normalized to buffer (0%) and Lundbeck Cmp 1a or JNJ-63533054 (100%), for Ca^2+ and IP1 experiments in the GPR139-CHOk1 stable cell line or Ca^2+, G protein activation, and arrestin-3 recruitment experiments in the HEK293A cells transiently transfected with GPR139, respectively. Data are from at least three independent experiments, unless stated otherwise. Concentration-response curves were fitted applying non-linear regression using the log (agonist) versus response model with variable slope. ANOVA was applied for comparing results and determining statistical significance. […]"}, "[2]": {"settings": "individual replicates (Supplementary Figure 1)"}, "[3]": {"settings": "individual replicates (Supplementary Figure 4)"}}, "note": "Several values for one entry are separate records, joined by “and”; a condition that tells them apart may be missing. Equal entries are not always repeated. Where two headings read alike, the source gives them in different places."}
{"compound": "COC(=O)c1cc(NC(=O)NC(C)c2cccc(F)c2F)ccc1C", "note": "(stereo not shown) [Compound 2, COC(=O)C=1C=C(NC(=O)NC(C)C=2C=CC=C(F)C2F)C=CC1C]", "values": [{"measurement": "Ca2+ signal (% of Cmp 1a)", "setting": "GPR139; [2]", "value": "21.0785 % of Cmp 1a and 18.2142 % of Cmp 1a and 25.1866 % of Cmp 1a"}]}
{"compound": "CC(NC(=O)CNC(=O)c1cccc(Cl)c1)c1ccccc1", "note": "(stereo not shown) [JNJ-63533054, reference compound]", "values": [{"measurement": "Emax", "setting": "[1]; HEK293-A, normalized to JNJ-63533054 (JNJ(S))", "value": "100 ± 4", "unit": "%"}, {"measurement": "EC50", "setting": "[1]; Supplementary Table 6", "value": 0.158, "unit": "µM"}, {"measurement": "Arrestin-3 recruitment", "setting": "[1]; log [compound] M -4.5, listed as JNJ (S)", "value": "94 % of JNJ-63533054 and 101 % of JNJ-63533054 and 107 % of JNJ-63533054"}, {"measurement": "Arrestin-3 recruitment", "setting": "[1]; log [compound] M -5.0, listed as JNJ (S)", "value": "95 % of JNJ-63533054 and 99 % of JNJ-63533054 and 103 % of JNJ-63533054"}, {"measurement": "Arrestin-3 recruitment", "setting": "[1]; log [compound] M -5.5, listed as JNJ (S)", "value": "90 % of JNJ-63533054 and 100 % of JNJ-63533054 and 94 % of JNJ-63533054"}, {"measurement": "Arrestin-3 recruitment", "setting": "[1]; log [compound] M -6.0, listed as JNJ (S)", "value": "85 % of JNJ-63533054 and 100 % of JNJ-63533054 and 78 % of JNJ-63533054"}, {"measurement": "Arrestin-3 recruitment", "setting": "[1]; log [compound] M -6.5, listed as JNJ (S)", "value": "68 % of JNJ-63533054 and 81 % of JNJ-63533054 and 55 % of JNJ-63533054"}, {"measurement": "Arrestin-3 recruitment", "setting": "[1]; log [compound] M -7.0, listed as JNJ (S)", "value": "45 % of JNJ-63533054 (2×) and 36 % of JNJ-63533054"}, {"measurement": "Arrestin-3 recruitment", "setting": "[1]; log [compound] M -7.5, listed as JNJ (S)", "value": "8 % of JNJ-63533054 and 15 % of JNJ-63533054 and 0.123 % of JNJ-63533054"}]}
{"compound": "Cc1noc(CNC(=O)C2(C)CCCCN2C(=O)c2ccccc2)n1", "note": "(stereo not shown) [Compound 4, CC1=NOC(CNC(=O)C2(C)CCCCN2C(=O)C=3C=CC=CC3)=N1]", "values": [{"measurement": "Ca2+ signal (% of Cmp 1a)", "setting": "GPR139; [2]", "value": "35.6047 % of Cmp 1a and 34.6013 % of Cmp 1a and 39.6569 % of Cmp 1a"}]}
{"compound": "Cc1cc(-c2nc(CC(=O)NC(C)c3ccccc3)no2)n(C)n1", "note": "(stereo not shown) [Compound 1.16, CC(C1=CC=CC=C1)NC(CC2=NOC(C3=CC(C)=NN3C)=N2)=O]", "values": [{"measurement": "Ca2+ signal (% of Cmp 1a)", "setting": "GPR139; [3]", "value": "5 % of Cmp 1a and 13 % of Cmp 1a and -4.67 % of Cmp 1a"}]}
{"compound": "COc1cc(OC)cc(C(=O)NNC(=O)Nc2cccc3ccccc23)c1", "note": "[Lundbeck Cmp 1a, reference compound]", "values": [{"measurement": "Ca2+ signal (% of Cmp 1a)", "setting": "GPR139; 10 µM compound + 800 nM Cmp 1a, individual replicates", "value": "6.33 % of Cmp 1a and 14 % of Cmp 1a and 11 % of Cmp 1a"}, {"measurement": "Ca2+ signal (% of Cmp 1a)", "setting": "GPR139; Vehicle + 800 nM Cmp 1a, individual replicates", "value": "92 % of Cmp 1a and 84 % of Cmp 1a and 83 % of Cmp 1a"}, {"measurement": "Ca2+ signal (% of Cmp 1a)", "setting": "GPR139; Vehicle + 10 µM Cmp 1a, individual replicates", "value": "100 % of Cmp 1a"}]}
{"compound": "Cc1nocc1-c1nc(CC(=O)NC(C)c2ccccc2)no1", "note": "(stereo not shown) [Compound 1.5, CC(C1=CC=CC=C1)NC(CC2=NOC(C3=CON=C3C)=N2)=O]", "values": [{"measurement": "Ca2+ signal (% of Cmp 1a)", "setting": "GPR139; [3]", "value": "3.33 % of Cmp 1a and -5.33 % of Cmp 1a and -2.33 % of Cmp 1a"}]}
{"compound": "C[C@@H](NC(=O)CNC(=O)c1cccc(Cl)c1)c1ccccc1", "note": "[JNJ(R), reference compound]", "values": [{"measurement": "Arrestin-3 recruitment", "setting": "[1]; log [compound] M -4.5", "value": "43 % of JNJ-63533054 and 70 % of JNJ-63533054 and 77 % of JNJ-63533054"}, {"measurement": "Arrestin-3 recruitment", "setting": "[1]; log [compound] M -5.0", "value": "41 % of JNJ-63533054 and 39 % of JNJ-63533054 and 33 % of JNJ-63533054"}, {"measurement": "Arrestin-3 recruitment", "setting": "[1]; log [compound] M -5.5", "value": "37 % of JNJ-63533054 and 35 % of JNJ-63533054 and 17 % of JNJ-63533054"}, {"measurement": "Arrestin-3 recruitment", "setting": "[1]; log [compound] M -6.0", "value": "20 % of JNJ-63533054 and 22 % of JNJ-63533054 and 12 % of JNJ-63533054"}, {"measurement": "Arrestin-3 recruitment", "setting": "[1]; log [compound] M -6.5", "value": "14 % of JNJ-63533054 and 8 % of JNJ-63533054 and 1.75 % of JNJ-63533054"}, {"measurement": "Arrestin-3 recruitment", "setting": "[1]; log [compound] M -7.0", "value": "4 % of JNJ-63533054 and 10 % of JNJ-63533054 and 2 % of JNJ-63533054"}, {"measurement": "Arrestin-3 recruitment", "setting": "[1]; log [compound] M -7.5", "value": "0 % of JNJ-63533054 (2×) and 0.153 % of JNJ-63533054"}, {"measurement": "EC50", "setting": "[1]", "value": 15.8, "unit": "µM"}]}
{"compound": "COc1ccccc1-c1nc(CC(=O)NC(C)c2ccccc2)no1", "note": "(stereo not shown) [Compound 1.2, COC1=C(C2=NC(CC(NC(C3=CC=CC=C3)C)=O)=NO2)C=CC=C1]", "values": [{"measurement": "Ca2+ signal (% of Cmp 1a)", "setting": "GPR139; [3]", "value": "2 % of Cmp 1a and 4 % of Cmp 1a and 3.33 % of Cmp 1a"}]}
